Test results reported in PubChem BioAssay (NCI).
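Values below derive from 48-hour exposures of cells grown in 96-well plates, with endpoints linearly interpolated between the two concentrations bracketing the appropriate inhibition level. GI50: concentration for 50% inhibition of growth. The concentration for full growth arrest is given as TGI.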

Experiments:
Assay in all cases: NCI anticancer screen, dose series, 48 h
[1] = tested on: NCI-H522 lung
[2] = tested on: SR leukemia
[3] = tested on: HCT-116 colon
[4] = tested on: OVCAR-4 ovarian
[5] = tested on: NCI-H226 lung
[6] = tested on: DU-145 prostate
[7] = tested on: NCI-H23 lung
[8] = tested on: SN12C renal
[9] = tested on: HOP-62 NSCLC
[10] = tested on: SK-OV-3 ovarian
[11] = tested on: MCF7 breast
[12] = tested on: PC-3 prostate
[13] = tested on: RXF 393 renal
[14] = tested on: KM12 colon
[15] = tested on: T-47D breast
[16] = tested on: MDA-MB-231 breast
[17] = tested on: SK-MEL-2 melanoma
[18] = tested on: NCI/ADR-RES ovarian
[19] = tested on: OVCAR-8 ovarian
[20] = tested on: BT-549 breast
[21] = tested on: 786-0 renal
[22] = tested on: HS 578T breast
[23] = tested on: CAKI-1 renal
[24] = tested on: ACHN renal
[25] = tested on: NCI-H460 lung
[26] = tested on: SF-268 CNS
[27] = tested on: LOX IMVI melanoma
[28] = tested on: MOLT-4 leukemia
[29] = tested on: MDA-MB-435
[30] = tested on: U251 CNS
[31] = tested on: M14 melanoma
[32] = tested on: EKVX NSCLC
[33] = tested on: SNB-19 CNS
[34] = tested on: RPMI-8226 leukemia
[35] = tested on: SK-MEL-28 melanoma
[36] = tested on: COLO 205 colon
[37] = tested on: SF-539 CNS
[38] = tested on: UACC-257 melanoma
[39] = tested on: K-562 leukemia
[40] = tested on: HCC-2998 colon
[41] = tested on: HT29 colon
[42] = tested on: SNB-75 CNS
[43] = tested on: HL-60(TB) leukemia
[44] = tested on: SK-MEL-5 melanoma
[45] = tested on: TK-10 renal
[46] = tested on: SF-295 CNS
[47] = tested on: HOP-92 NSCLC
[48] = tested on: OVCAR-5 ovarian
[49] = tested on: A498 renal
[50] = tested on: UO-31 renal
[51] = tested on: A549 NSCLC
[52] = tested on: SW-620 colon
[53] = tested on: HCT-15 colon
[54] = tested on: UACC-62 melanoma
[55] = tested on: MALME-3M melanoma
[56] = tested on: OVCAR-3 ovarian
[57] = tested on: IGROV1 ovarian
[58] = tested on: CCRF-CEM leukemia

CCN(CC)CCCNCc1cc(-c2ccccc2)nc2cc(Cl)ccc12
GI50 [1]: 4.96 µM
TGI [1]: 17.2 µM
GI50 [2]: 0.716 µM
TGI [2]: 5.38 µM
GI50 [3]: 1.46 µM
TGI [3]: 4.28 µM
GI50 [4]: 7.1 µM
TGI [4]: 20.5 µM
GI50 [5]: 11.8 µM
TGI [5]: 27.3 µM
GI50 [6]: 11.7 µM
TGI [6]: 24.5 µM
GI50 [7]: 12.5 µM
TGI [7]: 27.3 µM
GI50 [8]: 4.69 µM
TGI [8]: 18.2 µM
GI50 [9]: 5.54 µM
TGI [9]: 19.3 µM
GI50 [10]: 11.7 µM
TGI [10]: 24.1 µM
GI50 [11]: 1.69 µM
TGI [11]: 4.06 µM
GI50 [12]: 4.37 µM
TGI [12]: 18.4 µM
GI50 [13]: 2.91 µM
TGI [13]: 7.2 µM
GI50 [14]: 2.09 µM
TGI [14]: 4.82 µM
GI50 [15]: 1.7 µM
TGI [15]: 4.73 µM
GI50 [16]: 1.45 µM
TGI [16]: 4.24 µM
GI50 [17]: 2.32 µM
TGI [17]: 4.55 µM
GI50 [18]: 5 µM
TGI [18]: 19.7 µM
GI50 [19]: 5.81 µM
TGI [19]: 18.8 µM
GI50 [20]: 8.65 µM
TGI [20]: 21.6 µM
GI50 [21]: 2.41 µM
TGI [21]: 8.77 µM
GI50 [22]: 2.01 µM
TGI [22]: 5.29 µM
GI50 [23]: 2.35 µM
TGI [23]: 11.2 µM
GI50 [24]: 3.74 µM
TGI [24]: 14.2 µM
GI50 [25]: 3.41 µM
TGI [25]: 11.2 µM
GI50 [26]: 3.05 µM
TGI [26]: 12.9 µM
GI50 [27]: 1.87 µM
TGI [27]: 4.27 µM
GI50 [28]: 2.12 µM
TGI [28]: 5.46 µM
GI50 [29]: 1.84 µM
TGI [29]: 3.81 µM
GI50 [30]: 2.39 µM
TGI [30]: 6.67 µM
GI50 [31]: 1.92 µM
TGI [31]: 3.63 µM
GI50 [32]: 7.85 µM
TGI [32]: 24.3 µM
GI50 [33]: 10.2 µM
TGI [33]: 25.6 µM
GI50 [34]: 2.46 µM
TGI [34]: 5.93 µM
GI50 [35]: 1.72 µM
TGI [35]: 3.11 µM
GI50 [36]: 1.74 µM
TGI [36]: 3.27 µM
GI50 [37]: 1.02 µM
TGI [37]: 2.55 µM
GI50 [38]: 2.12 µM
TGI [38]: 5.11 µM
GI50 [39]: 1.94 µM
TGI [39]: 6.61 µM
GI50 [40]: 1.94 µM
TGI [40]: 3.89 µM
GI50 [41]: 2.2 µM
TGI [41]: 5.39 µM
GI50 [42]: 1.57 µM
TGI [42]: 4.34 µM
GI50 [43]: 1.78 µM
TGI [43]: 4.19 µM
GI50 [44]: 1.57 µM
TGI [44]: 3.13 µM
GI50 [45]: 3.27 µM
TGI [45]: 10.2 µM
GI50 [46]: 1.8 µM
TGI [46]: 4.37 µM
GI50 [47]: 1.16 µM
TGI [47]: 5.02 µM
GI50 [48]: 7.83 µM
TGI [48]: 21.7 µM
GI50 [49]: 2.36 µM
TGI [49]: 6.14 µM
GI50 [50]: 1.78 µM
TGI [50]: 11.5 µM
GI50 [51]: 7.02 µM
TGI [51]: 21.2 µM
GI50 [52]: 1.97 µM
TGI [52]: 3.94 µM
GI50 [53]: 3.1 µM
TGI [53]: 10.2 µM
GI50 [54]: 1.93 µM
TGI [54]: 3.59 µM
GI50 [55]: 1.63 µM
TGI [55]: 3.49 µM
GI50 [56]: 7.58 µM
TGI [56]: 20.5 µM

Cc1c(Nc2nccc3cc(CN4CC[C@@H](O)C4)cnc23)cccc1-c1cccc(-c2nc3cc(CN4CC[C@@H](C(=O)O)C4)cc(C#N)c3o2)c1C
GI50 [1]: 13.1 µM
TGI [1]: 30.6 µM
GI50 [2]: 2.95 µM
TGI [2]: 24.7 µM
GI50 [3]: 6.06 µM
TGI [3]: 23.6 µM
GI50 [4]: 14.3 µM
TGI [4]: > 100 µM
GI50 [5]: > 100 µM
TGI [5]: > 100 µM
GI50 [6]: > 100 µM
TGI [6]: > 100 µM
GI50 [7]: 12 µM
TGI [7]: 27.1 µM
GI50 [8]: 20.1 µM
TGI [8]: > 100 µM
GI50 [9]: > 100 µM
TGI [9]: > 100 µM
GI50 [10]: > 100 µM
TGI [10]: > 100 µM
GI50 [11]: 1.52 µM
TGI [11]: 4.26 µM
GI50 [12]: 4.17 µM
TGI [12]: > 100 µM
GI50 [13]: 2 µM
TGI [13]: 5.41 µM
GI50 [14]: 10.7 µM
TGI [14]: 27.6 µM
GI50 [15]: > 100 µM
TGI [15]: > 100 µM
GI50 [16]: 7.45 µM
TGI [16]: 26.2 µM
GI50 [17]: > 100 µM
TGI [17]: > 100 µM
GI50 [18]: 14.8 µM
TGI [18]: > 100 µM
GI50 [19]: 12.4 µM
TGI [19]: 36.2 µM
GI50 [20]: 1.75 µM
TGI [20]: 8.68 µM
GI50 [21]: 4.5 µM
TGI [21]: > 100 µM
GI50 [22]: 15.1 µM
TGI [22]: > 100 µM
GI50 [23]: > 100 µM
TGI [23]: > 100 µM
GI50 [24]: 91.7 µM
TGI [24]: > 100 µM
GI50 [25]: 7.15 µM
TGI [25]: 21.8 µM
GI50 [26]: 10.9 µM
TGI [26]: > 100 µM
GI50 [27]: 1.97 µM
TGI [27]: 4.27 µM
GI50 [28]: 2.72 µM
TGI [28]: 9.08 µM
GI50 [29]: 15.3 µM
TGI [29]: 35.1 µM
GI50 [30]: 12.1 µM
TGI [30]: 26.8 µM
GI50 [31]: 5.82 µM
TGI [31]: 20.3 µM
GI50 [32]: > 100 µM
TGI [32]: > 100 µM
GI50 [33]: 16.5 µM
TGI [33]: 46.2 µM
GI50 [34]: 2.26 µM
TGI [34]: 26.5 µM
GI50 [35]: 11.6 µM
TGI [35]: 27.8 µM
GI50 [36]: 18.7 µM
TGI [36]: > 100 µM
GI50 [37]: 5.9 µM
TGI [37]: 28.1 µM
GI50 [38]: 14.2 µM
TGI [38]: 32.5 µM
GI50 [39]: 1.44 µM
TGI [39]: > 100 µM
GI50 [40]: 12.7 µM
TGI [40]: 49 µM
GI50 [41]: 2.09 µM
TGI [41]: 4.64 µM
GI50 [42]: 15.1 µM
TGI [42]: > 100 µM
GI50 [43]: 9.93 µM
TGI [43]: 59.7 µM
GI50 [44]: 10.2 µM
TGI [44]: 22.7 µM
GI50 [45]: 20.5 µM
TGI [45]: > 100 µM
GI50 [46]: 3.98 µM
TGI [46]: > 100 µM
GI50 [47]: 2 µM
TGI [47]: > 100 µM
GI50 [57]: 8.45 µM
TGI [57]: > 100 µM
GI50 [48]: 53.7 µM
TGI [48]: > 100 µM
GI50 [58]: 3.2 µM
TGI [58]: > 100 µM
GI50 [49]: > 100 µM
TGI [49]: > 100 µM
GI50 [50]: 4.7 µM
TGI [50]: > 100 µM
GI50 [51]: 5.33 µM
TGI [51]: 19.1 µM
GI50 [52]: 4.67 µM
TGI [52]: 17.9 µM
GI50 [53]: 3.79 µM
TGI [53]: 15.8 µM
GI50 [54]: 15.7 µM
TGI [54]: 38.1 µM
GI50 [55]: 4.35 µM
TGI [55]: 23.2 µM
GI50 [56]: 14.8 µM
TGI [56]: > 100 µM
